Test results as given in publication PMC12396409, “Screening and hit evaluation of a microbial metabolite library against the pathogenic Plasmodium falciparum and Toxoplasma gondii parasites” (International Journal for Parasitology: Drugs and Drug …, 2025).
Counter-ions that a name gives are not always drawn. Like-named read-outs stand apart in the source and are kept apart here.

Tests used:
[1] = tested on: P. falciparum 3D7 parasites; test: P. falciparum growth inhibition assay, 1-cycle (72 h treatment), SYBR DNA staining (library screen at 2 μg/mL and dose-response); format: cell-based, Plasmodium falciparum
[2] = tested on: P. falciparum 3D7 parasites; test: P. falciparum growth inhibition assay, 2-cycle (120 h treatment), delayed-death screen and dose-response; format: cell-based, Plasmodium falciparum
[3] = tested on: T. gondii RH strain (RH-Tub-eYFP) tachyzoites; test: microbe, parasite or virus in culture; format: cell-based, Toxoplasma gondii; conditions: 72 h; for Tg_72h_%Growth_Rep1 / Tg_72h_%Growth_Rep2: % growth; for Tg_72h_%Growth_Rep1: replicate 1; for Tg_72h_%Growth_Rep2: replicate 2; for percent parasite growth at 2 µg/mL: Toxoplasma gondii
[4] = P. falciparum 3D7, 72 h, parasite screen at 2 μg/mL, % growth, replicate 1
[5] = P. falciparum 3D7, 72 h, parasite screen at 2 μg/mL, % growth, replicate 2
[6] = P. falciparum 3D7, 120 h, parasite screen at 2 μg/mL, % growth, replicate 1
[7] = P. falciparum 3D7, 120 h, parasite screen at 2 μg/mL, % growth, replicate 2
[8] = T. gondii, parasite screen at 2 μg/mL
[9] = P. falciparum 3D7, 72 h, library screen at 2 μg/mL, % growth, replicate 1
[10] = P. falciparum 3D7, 72 h, library screen at 2 μg/mL, % growth, replicate 2
[11] = P. falciparum 3D7, 120 h, library screen at 2 μg/mL, % growth, replicate 1
[12] = P. falciparum 3D7, 120 h, library screen at 2 μg/mL, % growth, replicate 2
[13] = T. gondii RH, library screen at 2 μg/mL
[14] = library screen at 2 μg/mL, 72 h, % growth, replicate 1
[15] = library screen at 2 μg/mL, 72 h, % growth, replicate 2
[16] = library screen at 2 μg/mL, 120 h, % growth, replicate 1
[17] = library screen at 2 μg/mL, 120 h, % growth, replicate 2
[18] = T. gondii, parasite screen 2 μg/mL

Cn1c(=O)/c(=C/c2ccccc2)[nH]c(=O)/c1=C/c1ccccc1 [BIA-P1156]
Pf_72h_%Growth_Rep1 [1, 4]: 84.26%
Pf_72h_%Growth_Rep2 [1, 5]: 90.89%
Pf_120h_%Growth_Rep1 [2, 6]: 81.04%
Pf_120h_%Growth_Rep2 [2, 7]: 137.39%
Tg_72h_%Growth_Rep1 [3, 8]: 116.90%
Tg_72h_%Growth_Rep2 [3, 8]: 94.03%

C[C@H]1C(=O)O[C@@H]2CCN3CC=C(COC(=O)[C@](C)(O)[C@]1(C)O)[C@H]23 [BIA-M1801]
Pf_72h_%Growth_Rep1 [1, 4]: 85.52%
Pf_72h_%Growth_Rep2 [1, 5]: 78.69%
Pf_120h_%Growth_Rep1 [2, 6]: 81.80%
Pf_120h_%Growth_Rep2 [2, 7]: 104.58%
Tg_72h_%Growth_Rep1 [3, 8]: 108.79%
Tg_72h_%Growth_Rep2 [3, 8]: 79.49%

COc1ccc(/C=C/C(=O)O)cc1O [BIA-I1729]
Pf_72h_%Growth_Rep1 [1, 9]: 80.53%
Pf_72h_%Growth_Rep2 [1, 10]: 116.78%
Pf_120h_%Growth_Rep1 [2, 11]: 85.87%
Pf_120h_%Growth_Rep2 [2, 12]: 112.77%
Tg_72h_%Growth_Rep1 [3, 13]: 136.89%
Tg_72h_%Growth_Rep2 [3, 13]: 92.18%

C=CCNC1=C2C[C@@H](C)C[C@H](OC)[C@H](O)[C@@H](C)/C=C(\C)[C@H](OC(N)=O)[C@@H](OC)/C=C\C=C(/C)C(=O)NC(=CC1=O)C2=O [Allylamino-17-demethoxygeldanamycin, 17-]
Pf_72h_%Growth_Rep1 [1, 14]: 14.05%
Pf_72h_%Growth_Rep2 [1, 15]: 5.13%
Pf_120h_%Growth_Rep1 [2, 16]: 19.67%
Pf_120h_%Growth_Rep2 [2, 17]: 7.18%
Tg_72h_%Growth_Rep1 ([3]; library screen at 2 μg/mL): -1.02%
Tg_72h_%Growth_Rep2 ([3]; library screen at 2 μg/mL): -0.21%

CC[C@H](C)[C@H]1O[C@]2(C=C[C@@H]1C)C[C@@H]1C[C@@H](C/C=C(\C)[C@@H](O[C@H]3C[C@H](OC)[C@@H](O)[C@H](C)O3)[C@@H](C)/C=C/C=C3\CO[C@@H]4[C@H](O)C(C)=C[C@@H](C(=O)O1)[C@]34O)O2 [Avermectin B1a monosaccharide]
Pf_72h_%Growth_Rep1 [1, 14]: 47.44%
Pf_72h_%Growth_Rep2 [1, 15]: 32.72%
Pf_120h_%Growth_Rep1 [2, 16]: 24.77%
Pf_120h_%Growth_Rep2 [2, 17]: 20.49%
Tg_72h_%Growth_Rep1 ([3]; library screen at 2 μg/mL): 153.46%
Tg_72h_%Growth_Rep2 ([3]; library screen at 2 μg/mL): 93.98%

CN(C)[C@H]1C(O)=C(C(N)=O)C(=O)[C@@]2(O)C(O)=C3C(=O)c4c(O)cccc4[C@@](C)(O)[C@H]3C[C@@H]12 [Epitetracycline hydrochloride]
activity at 2 µg/mL ([1]; Plasmodium falciparum, 3D7; P. falciparum, 2 μg/mL, 72 h; read-out: 1) Growth (%) at 72 h): 57.7%
activity at 2 µg/mL ([1]; Plasmodium falciparum, 3D7, library screen at 2 μg/mL, 72 h, % growth, replicate 1, read-out: Pf_72h_%Growth_Rep1): 65.2%
activity at 2 µg/mL ([1]; Plasmodium falciparum, 3D7, library screen at 2 μg/mL, 72 h, % growth, replicate 2, read-out: Pf_72h_%Growth_Rep2): 50.1%
3) Fold change (72 h/120 h) [2]: 3.9
activity at 2 µg/mL ([2]; Plasmodium falciparum, 3D7; P. falciparum, 2 μg/mL, 120 h; read-out: 2) Growth (%) at 120 h): 14.7%
activity at 2 µg/mL ([2]; Plasmodium falciparum, 3D7, library screen at 2 μg/mL, 120 h, % growth, replicate 1, read-out: Pf_120h_%Growth_Rep1): 18%
activity at 2 µg/mL ([2]; Plasmodium falciparum, 3D7, library screen at 2 μg/mL, 120 h, % growth, replicate 2, read-out: Pf_120h_%Growth_Rep2): 11.5%
percent parasite growth at 2 µg/mL ([3]; read-out: Tg_72h_%Growth_Rep1): 125%
percent parasite growth at 2 µg/mL ([3]; read-out: Tg_72h_%Growth_Rep2): 100%

CCCC1CC(C(=O)NC(C(C)O)C2OC(SC)C(O)C(O)C2O)N(C)C1 (centres unmarked) [BIA-L1457]
Pf_72h_%Growth_Rep1 [1, 9]: 49.27%
Pf_72h_%Growth_Rep2 [1, 10]: 59.50%
Pf_120h_%Growth_Rep1 [2, 11]: 9.59%
Pf_120h_%Growth_Rep2 [2, 12]: 18.68%
Tg_72h_%Growth_Rep1 [3, 13]: 26.67%
Tg_72h_%Growth_Rep2 [3, 13]: 42.80%

COc1cccc2oc3c4c(cc(OC)c3c(=O)c12)O[C@H]1OC=C[C@@H]41 [BIA-M1214]
Pf_72h_%Growth_Rep1 [1, 4]: 80.14%
Pf_72h_%Growth_Rep2 [1, 5]: 43.63%
Pf_120h_%Growth_Rep1 [2, 6]: 94.17%
Pf_120h_%Growth_Rep2 [2, 7]: 84.03%
Tg_72h_%Growth_Rep1 [3, 8]: 111.85%
Tg_72h_%Growth_Rep2 [3, 8]: 93.41%

CC[C@H]1CCC[C@H](O)[C@@H](C)C(=O)C2=C[C@@H]3[C@@H](C=C(C)[C@@H]4C[C@@H](O)C[C@@H]34)[C@@H]2CC(=O)O1 [Spinosyn D aglycone]
IC50 ([1]; 3D7, 72 h treatment, mean ± S.D., n ≥ 3, read-out: IC50 (μM), P. falciparum): > 1 µM
Pf_72h_%Growth_Rep1 ([1]; P. falciparum, 72 h, parasite screen 2 μg/mL, % growth, replicate 1): 82.67%
Pf_72h_%Growth_Rep2 ([1]; P. falciparum, 72 h, parasite screen 2 μg/mL, % growth, replicate 2): 106.85%
Screen (P. falciparum) ([1]; library screen at 2 μg/mL, 3D7, 72 h, DD from the 120 h timepoint): I
Pf_120h_%Growth_Rep1 ([2]; P. falciparum, 120 h, parasite screen 2 μg/mL, % growth, replicate 1): 82.24%
Pf_120h_%Growth_Rep2 ([2]; P. falciparum, 120 h, parasite screen 2 μg/mL, % growth, replicate 2): 90.76%
Tg_72h_%Growth_Rep1 [3, 18]: 115.34%
Tg_72h_%Growth_Rep2 [3, 18]: 86.84%

C/C=C/C=C/[C@H]1Cc2cc(O)cc(O)c2O1 [Asperfuran]
Pf_72h_%Growth_Rep1 [1, 14]: 81.82%
Pf_72h_%Growth_Rep2 [1, 15]: 86.77%
Pf_120h_%Growth_Rep1 [2, 16]: 70.89%
Pf_120h_%Growth_Rep2 [2, 17]: 94.19%
Tg_72h_%Growth_Rep1 ([3]; library screen at 2 μg/mL): 65.57%
Tg_72h_%Growth_Rep2 ([3]; library screen at 2 μg/mL): 59.68%

CSc1cc(=O)n2c3ccccc3c3ccnc1c32 [BIA-M1959]
Pf_72h_%Growth_Rep1 [1, 4]: 72.92%
Pf_72h_%Growth_Rep2 [1, 5]: 92.02%
Pf_120h_%Growth_Rep1 [2, 6]: 177.81%
Pf_120h_%Growth_Rep2 [2, 7]: 100.67%
Tg_72h_%Growth_Rep1 [3, 8]: 88.90%
Tg_72h_%Growth_Rep2 [3, 8]: 111.29%
